# Measured values taken from ChEMBL document CHEMBL1201862, “PubChem BioAssay data set” (2004).
#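 Protocol summary: plate cells (96-well), add compound at 5 concentrations, incubate 48 h, interpolate endpoints linearly. GI50 marks 50% less growth.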 Calls of active or inactive are those of the source. No stated cut-off is given here; in the data, active = GI50 up to about 1.1 µM and inactive = higher.
# Assays:
# Assay in all cases: inhibition of tumour cell growth, NCI panel, 48 h
# [1] = test system: 786-0
# [2] = test system: A498
# [3] = test system: A549
# [4] = test system: ACHN
# [5] = test system: BT-549
# [6] = test system: CAKI-1
# [7] = test system: CCRF-CEM
# [8] = test system: COLO 205
# [9] = test system: DU-145
# [10] = test system: EKVX
# [11] = test system: HCC 2998
# [12] = test system: HCT-116
# [13] = test system: HCT-15
# [14] = test system: HL-60
# [15] = test system: HOP-62
# [16] = test system: HT-29
# [17] = test system: Hs-578T
# [18] = test system: IGROV-1
# [19] = test system: K562
# [20] = test system: KM12
# [21] = test system: LOX IMVI
# [22] = test system: M14
# [23] = test system: MCF7
# [24] = test system: MDA-MB-435
# [25] = test system: MDA-N
# [26] = test system: MOLT-4
# [27] = test system: NCI-H226
# [28] = test system: NCI-H23
# [29] = test system: NCI-H460
# [30] = test system: NCI-H522
# [31] = test system: NCI/ADR-RES
# [32] = test system: OVCAR-3
# [33] = test system: OVCAR-4
# [34] = test system: OVCAR-5
# [35] = test system: PC-3
# [36] = test system: RPMI-8226
# [37] = test system: RXF 393
# [38] = test system: SF-268
# [39] = test system: SF-295
# [40] = test system: SF-539
# [41] = test system: SK-MEL-28
# [42] = test system: SK-MEL-2
# [43] = test system: SK-MEL-5
# [44] = test system: SK-OV-3
# [45] = test system: SN12C
# [46] = test system: SNB-19
# [47] = test system: SR
# [48] = test system: SW-620
# [49] = test system: T47D
# [50] = test system: TK-10
# [51] = test system: U-251
# [52] = test system: UACC-257
# [53] = test system: UACC-62
# [54] = test system: UO-31
# [55] = test system: HOP-92
# [56] = test system: MDA-MB-231
# [57] = test system: Malme-3M
# [58] = test system: OVCAR-8
# [59] = test system: SNB-75
smiles,measurement,setting,value
CC(=O)N[C@@H](Cc1ccc(O)cn1)C(=O)NCc1cccc(Cl)c1,GI50,[1],> 100 µM (inactive)
same,GI50,[2],> 100 µM (inactive)
same,GI50,[3],> 100 µM (inactive)
same,GI50,[4],> 100 µM (inactive)
same,GI50,[5],> 100 µM (inactive)
same,GI50,[6],> 100 µM (inactive)
same,GI50,[7],> 100 µM (inactive)
same,GI50,[8],> 100 µM (inactive)
same,GI50,[9],> 100 µM (inactive)
same,GI50,[10],> 100 µM (inactive)
same,GI50,[11],> 100 µM (inactive)
same,GI50,[12],> 100 µM (inactive)
same,GI50,[13],> 100 µM
same,GI50,[14],37.8 µM (inactive)
same,GI50,[15],> 100 µM (inactive)
same,GI50,[16],> 100 µM (inactive)
same,GI50,[17],> 100 µM (inactive)
same,GI50,[18],> 100 µM (inactive)
same,GI50,[19],> 100 µM (inactive)
same,GI50,[20],> 100 µM (inactive)
same,GI50,[21],> 100 µM (inactive)
same,GI50,[22],> 100 µM (inactive)
same,GI50,[23],> 100 µM (inactive)
same,GI50,[24],> 100 µM (inactive)
same,GI50,[25],> 100 µM (inactive)
same,GI50,[26],> 100 µM (inactive)
same,GI50,[27],> 100 µM (inactive)
same,GI50,[28],> 100 µM (inactive)
same,GI50,[29],> 100 µM (inactive)
same,GI50,[30],> 100 µM (inactive)
same,GI50,[31],> 100 µM (inactive)
same,GI50,[32],> 100 µM (inactive)
same,GI50,[33],> 100 µM (inactive)
same,GI50,[34],> 100 µM (inactive)
same,GI50,[35],> 100 µM (inactive)
same,GI50,[36],> 100 µM (inactive)
same,GI50,[37],> 100 µM (inactive)
same,GI50,[38],> 100 µM (inactive)
same,GI50,[39],> 100 µM (inactive)
same,GI50,[40],> 100 µM (inactive)
same,GI50,[41],> 100 µM (inactive)
same,GI50,[42],> 100 µM (inactive)
same,GI50,[43],> 100 µM (inactive)
same,GI50,[44],> 100 µM (inactive)
same,GI50,[45],> 100 µM (inactive)
same,GI50,[46],> 100 µM (inactive)
same,GI50,[47],> 100 µM (inactive)
same,GI50,[48],> 100 µM (inactive)
same,GI50,[49],> 100 µM (inactive)
same,GI50,[50],> 100 µM (inactive)
same,GI50,[51],> 100 µM (inactive)
same,GI50,[52],> 100 µM (inactive)
same,GI50,[53],> 100 µM (inactive)
same,GI50,[54],> 100 µM (inactive)
COC(=O)C[C@@H]1C(C)(C)[C@@H]2O[C@@]34C[C@@H]2C(=O)[C@]1(C)[C@H]3CC[C@@]1(C)[C@H](c2ccoc2)OC(=O)C[C@]14O,GI50,[1],> 100 µM (inactive)
same,GI50,[2],> 100 µM (inactive)
same,GI50,[3],> 100 µM (inactive)
same,GI50,[4],> 100 µM (inactive)
same,GI50,[5],> 100 µM (inactive)
same,GI50,[6],> 100 µM (inactive)
same,GI50,[7],> 100 µM (inactive)
same,GI50,[8],> 100 µM (inactive)
same,GI50,[9],> 100 µM (inactive)
same,GI50,[10],> 100 µM (inactive)
same,GI50,[12],> 100 µM (inactive)
same,GI50,[13],> 100 µM
same,GI50,[14],> 100 µM (inactive)
same,GI50,[15],> 100 µM (inactive)
same,GI50,[55],> 100 µM (inactive)
same,GI50,[16],> 100 µM (inactive)
same,GI50,[18],> 100 µM (inactive)
same,GI50,[19],> 100 µM (inactive)
same,GI50,[20],> 100 µM (inactive)
same,GI50,[21],> 100 µM (inactive)
same,GI50,[22],> 100 µM (inactive)
same,GI50,[23],> 100 µM (inactive)
same,GI50,[56],> 100 µM (inactive)
same,GI50,[24],> 100 µM (inactive)
same,GI50,[25],> 100 µM (inactive)
same,GI50,[26],> 100 µM (inactive)
same,GI50,[57],> 100 µM (inactive)
same,GI50,[27],> 100 µM (inactive)
same,GI50,[28],> 100 µM (inactive)
same,GI50,[29],> 100 µM (inactive)
same,GI50,[30],> 100 µM (inactive)
same,GI50,[31],> 100 µM (inactive)
same,GI50,[32],> 100 µM (inactive)
same,GI50,[33],> 100 µM (inactive)
same,GI50,[34],> 100 µM (inactive)
same,GI50,[58],> 100 µM (inactive)
same,GI50,[35],> 100 µM (inactive)
same,GI50,[36],> 100 µM (inactive)
same,GI50,[38],> 100 µM (inactive)
same,GI50,[39],> 100 µM (inactive)
same,GI50,[40],> 100 µM (inactive)
same,GI50,[41],> 100 µM (inactive)
same,GI50,[42],> 100 µM (inactive)
same,GI50,[43],> 100 µM (inactive)
same,GI50,[44],> 100 µM (inactive)
same,GI50,[45],> 100 µM (inactive)
same,GI50,[46],71.6 µM (inactive)
same,GI50,[59],> 100 µM (inactive)
same,GI50,[47],> 100 µM (inactive)
same,GI50,[48],> 100 µM (inactive)
same,GI50,[49],> 100 µM (inactive)
same,GI50,[50],> 100 µM (inactive)
same,GI50,[51],> 100 µM (inactive)
same,GI50,[52],> 100 µM (inactive)
same,GI50,[53],> 100 µM (inactive)
Cc1nn(C(=O)Cc2ccccc2)c2c1C(c1ccc(O)cc1)SC(=N)N2 (stereo not given),GI50,[1],> 100 µM (inactive)
same,GI50,[2],> 100 µM (inactive)
same,GI50,[3],> 100 µM (inactive)
same,GI50,[4],> 100 µM (inactive)
same,GI50,[5],> 100 µM (inactive)
same,GI50,[6],> 100 µM (inactive)
same,GI50,[7],> 100 µM (inactive)
same,GI50,[8],> 100 µM (inactive)
same,GI50,[9],> 100 µM (inactive)
same,GI50,[10],> 100 µM (inactive)
same,GI50,[11],> 100 µM (inactive)
same,GI50,[12],> 100 µM (inactive)
same,GI50,[13],> 100 µM
same,GI50,[14],> 100 µM (inactive)
same,GI50,[15],> 100 µM (inactive)
same,GI50,[16],> 100 µM (inactive)
same,GI50,[17],> 100 µM (inactive)
same,GI50,[18],> 100 µM (inactive)
same,GI50,[19],> 100 µM (inactive)
same,GI50,[20],> 100 µM (inactive)
same,GI50,[21],> 100 µM (inactive)
same,GI50,[22],> 100 µM (inactive)
same,GI50,[23],> 100 µM (inactive)
same,GI50,[56],> 100 µM (inactive)
same,GI50,[24],> 100 µM (inactive)
same,GI50,[25],> 100 µM (inactive)
same,GI50,[26],> 100 µM (inactive)
same,GI50,[57],> 100 µM (inactive)
same,GI50,[27],> 100 µM (inactive)
same,GI50,[28],> 100 µM (inactive)
same,GI50,[29],> 100 µM (inactive)
same,GI50,[30],> 100 µM (inactive)
same,GI50,[58],> 100 µM (inactive)
same,GI50,[35],> 100 µM (inactive)
same,GI50,[36],> 100 µM (inactive)
same,GI50,[38],> 100 µM (inactive)
same,GI50,[39],> 100 µM (inactive)
same,GI50,[40],> 100 µM (inactive)
same,GI50,[41],> 100 µM (inactive)
same,GI50,[43],> 100 µM (inactive)
same,GI50,[44],> 100 µM (inactive)
same,GI50,[45],> 100 µM (inactive)
same,GI50,[46],> 100 µM (inactive)
same,GI50,[59],44.6 µM (inactive)
same,GI50,[47],> 100 µM (inactive)
same,GI50,[48],> 100 µM (inactive)
same,GI50,[49],> 100 µM (inactive)
same,GI50,[50],> 100 µM (inactive)
same,GI50,[52],> 100 µM (inactive)
same,GI50,[53],> 100 µM (inactive)
same,GI50,[54],> 100 µM (inactive)
